How the values were obtained:
Format in all cases: cell-based, human
MOLT-4 cells = test: XTT cytotoxicity assay, MOLT-4; conditions: for IC50: Homo sapiens, MOLT-4, XTT, 48 h incubation, none in the picture
Procedure: The cytotoxic activity test with XTT (sodium 3′-[1-(phenylaminocarbonyl)- 3,4-tetrazolium]-bis (4-methoxy-6-nitro) benzene sulfonic acid hydrate) is a colorimetric method for determining the parameters associated with cell viability. The cytotoxicity in HL-60, THP-1, MOLT-4, and HMEC-1 cells was measured by the XTT assay. XTT is reduced to formazan by the mitochondrial respiratory chain oxidoreductase, which is active only in living cells. The formed crystals of formazan are dissolved directly in the medium. The amount of product is proportional to the number of live cells.
The IC50 parameter was determined by dividing the mean absorbance values of the drug-treated samples by those of control cells and defined as the drug concentration causing a 50% reduction of cell viability relative to the control. It was calculated using the “Ed50v10(1)” computer application. Cells were plated in 96-well plates at a density of 15 × 10^3 cells in 100 μL culture medium. Drugs were then added at a concentration range of 10 nM–10,000 nM to obtain a final volume of the mixture of 150 μL. Some cells were preincubated with an ATR kinase inhibitor (VE-821) for 1 h at 37 °C before adding the tested compounds. In this case drugs were added at a concentration range of 10 nM–300 nM. For the XTT assay, after 48 h of incubation, the plates were centrifuged at 1,500 rpm for 10 min at 4 °C, the culture medium was removed, and the cells were suspended in 100 mm^3 of HBSS (Hank’s Buffered Salt Solution) containing 140 mM NaCl, 5 mM KCl, 0.8 mM MgCl2, 1.8 mM CaCl2, 1 mM Na2HPO4, 10 mM HEPES (N- (2-hydroxyethyl) -piperazine-N′- (2-ethanesulfonic acid), and 1% glucose at pH 7.4. Then, 50 μL of XTT solution (in PBS) was added to a final concentration of […]. In addition, PMS (phenazine methosulphate) - methyl dibenzo-N-methylpyrazine sulphate (0.383 mg/cm^3) was used, which was combined with XTT solution at a ratio of 1:50. After 4 h of incubation with XTT, absorbance was measured at a wavelength λ = 450 nm and reference wavelength λ = 690 nm with a microplate reader (BioTek, Winooski, VT, USA).

γH2AX in MOLT-4 cells = test: H2AX (phospho S139) In-Cell ELISA, MOLT-4; conditions: MOLT-4, 48 h, versus CLA
Procedure: The level H2AX protein phosphorylated Ser139 was measured in tested leukemia cells by using of In-Cell ELISA, ICE assay kit. The cells were seeded on 96-well plates (100 × 10^3/well) and 48 h later, incubated with the appropriate compounds. In some experimental variants, cells were preincubated for 1 h with VE-821 (10 µM). The cells were fixed by adding a final concentration of 4% paraformaldehyde solution (10 min, room temperature). After 2 h of Block Solution incubation, cells were treated with a highly specific antibody. A rabbit monoclonal antibody specific to H2AX (phospho S139) was used (at 1:100, 2 h incubation). Next Secondary Antibody Solution (at 1:1000) were added to the cells. The measurements were obtained on a fluorescence plate reader at an excitation wavelength of 680 nm and emission at 694 nm. The cells were PBS washed and 100 µL of Janus Green Stain was added to each well of the plate (5 min., room temperature). The data were collected at excitation wavelength of 750 nm and emission at 800 nm channel (Fluoroskan Cary Eclipse). Antibody signal intensity was normalized to the total amount using Janus Green cell-stain.

[1] = tested on: intracellular calcium in THP-1 cells; test: Intracellular calcium assay (Fluo-4 NW), THP-1; conditions: THP-1, 2 h incubation
Procedure: Intracellular calcium levels were determined using the fluorescent probe Fluo-4 NW. The cells were plated in 96-well black plates (15 × 10^3 cells/well) and treated with cladribine and the new derivatives. Incubation with drugs was performed for different times (2–48 h). The medium was then removed, and the cells were washed with phosphate buffered saline (PBS)[35],[36]. Finally, a dye loading solution (Fluo-4 NW dye, probenecid, assay buffer—1xHBSS, 20 mM HEPES; 100 μL per well) was processed according to the Fluo-4 NW Calcium Assay Kit protocol (Molecular Probes) and incubated for 30 min in the dark at 37 °C, and then for another 30 min at the room temperature. The measurements were calculated on a fluorescence plate reader for excitation at 494 nm and emission at 516 nm. To avoid errors in the measurement of fluorescence intensity, caused by feasible cell detachment and resulting decrease in the cell number in the samples due to the drug treatment, DNA content was estimated as well.[37] After the measurement of intracellular calcium fluorescence, the probes were centrifuged at 300xg, 10 min. […] Then 100 μl of 5 μM of propidium iodide (PI) was added, the plate was immediately shaken, incubated for 15 min at room temperature in the dark and the fluorescence was read at 350/620 nm with a Fluoroskan Ascent FL microplate reader (Labsystems, Sweden).

## OC[C@H]1O[C@@H](n2cnc3c(N=CN4CCOCC4)nc(Cl)nc32)C[C@@H]1O [CLA-FMOR, [6-deamino-6-(N′, N′-3′-oxa-1′, 5′-pentamethyleneformamidine)] cladribine]
MOLT-4 cells
  IC50: 73 nM
MOLT-4 cells; MOLT-4, XTT
  cytotoxic potency compared with CLA: more potent than CLA
γH2AX in MOLT-4 cells
  effectiveness in inducing dsDNA (γH2AX) relative to CLA: about 2 fold
[1]
  intracellular calcium ion concentration: highest intracellular calcium ion concentration

## OC[C@H]1O[C@@H](n2cnc3c(N=CN4CCCC4)nc(Cl)nc32)C[C@@H]1O [CLA-FPIR, [6-deamino-6-(N′, N′-l′, 4′-tetramethyleneformamidino)] cladribine]
MOLT-4 cells
  IC50: 127 nM
γH2AX in MOLT-4 cells
  effectiveness in inducing dsDNA (γH2AX) relative to CLA: about 2 fold
[1]
  intracellular calcium ion concentration: highest intracellular calcium ion concentration

From publication PMC6773697, “Antileukemic activity of novel adenosine derivatives” (Scientific Reports, 2019)
